Assay results: publication PMC11864979, “First-in-class ultralong-target-residence-time p38α inhibitors as a mitosis-targeted therapy for colorectal cancer” (Nature Cancer, 2025)
Like-named read-outs stand apart in the source and are kept apart here.

What was measured:
Assay in all cases: selectivity profiling in a panel of 340 wild-type kinases (Reaction Biology Europe)
Type in all cases: binding
[1] = molecular target: T1, 340 wild-type kinases (Homo sapiens, UniProt O95819)
T1 construct: purchased Reaction Biology Europe
T1 sequence (O95819 whole entry): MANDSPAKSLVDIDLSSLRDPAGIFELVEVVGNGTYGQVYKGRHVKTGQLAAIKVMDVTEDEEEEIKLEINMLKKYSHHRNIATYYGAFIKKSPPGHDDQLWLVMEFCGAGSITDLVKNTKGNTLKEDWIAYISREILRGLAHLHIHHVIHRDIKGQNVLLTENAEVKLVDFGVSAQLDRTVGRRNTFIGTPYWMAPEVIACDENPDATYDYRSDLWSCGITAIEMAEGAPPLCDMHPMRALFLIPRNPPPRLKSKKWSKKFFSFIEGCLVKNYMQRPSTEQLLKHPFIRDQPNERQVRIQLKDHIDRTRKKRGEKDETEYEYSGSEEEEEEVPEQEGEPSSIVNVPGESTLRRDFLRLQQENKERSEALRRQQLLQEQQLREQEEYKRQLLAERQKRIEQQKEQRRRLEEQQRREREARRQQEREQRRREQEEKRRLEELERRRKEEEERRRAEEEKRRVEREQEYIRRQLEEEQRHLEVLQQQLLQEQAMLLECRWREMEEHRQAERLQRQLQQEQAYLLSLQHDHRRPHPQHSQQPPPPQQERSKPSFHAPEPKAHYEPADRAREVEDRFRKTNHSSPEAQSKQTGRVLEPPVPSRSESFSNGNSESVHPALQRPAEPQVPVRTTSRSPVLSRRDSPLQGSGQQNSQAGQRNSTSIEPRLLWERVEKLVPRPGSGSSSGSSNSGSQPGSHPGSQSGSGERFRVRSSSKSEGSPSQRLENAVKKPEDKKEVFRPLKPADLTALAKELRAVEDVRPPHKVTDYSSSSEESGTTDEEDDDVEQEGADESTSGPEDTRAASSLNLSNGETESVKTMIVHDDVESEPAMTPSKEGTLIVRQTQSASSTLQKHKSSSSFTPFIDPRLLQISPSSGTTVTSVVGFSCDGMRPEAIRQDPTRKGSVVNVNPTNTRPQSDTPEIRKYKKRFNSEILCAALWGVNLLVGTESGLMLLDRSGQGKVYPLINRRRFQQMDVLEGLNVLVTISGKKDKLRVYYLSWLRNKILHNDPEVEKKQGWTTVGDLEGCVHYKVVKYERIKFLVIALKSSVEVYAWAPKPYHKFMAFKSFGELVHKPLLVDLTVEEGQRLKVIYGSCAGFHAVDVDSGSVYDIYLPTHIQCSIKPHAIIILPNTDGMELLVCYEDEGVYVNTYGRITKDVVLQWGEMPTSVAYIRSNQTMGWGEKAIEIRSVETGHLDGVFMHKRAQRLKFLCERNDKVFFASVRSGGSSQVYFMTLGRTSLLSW

[2] = molecular target: T2, 340 wild-type kinases (Homo sapiens, UniProt P49674)
T2 construct: purchased Reaction Biology Europe
T2 sequence (P49674 whole entry): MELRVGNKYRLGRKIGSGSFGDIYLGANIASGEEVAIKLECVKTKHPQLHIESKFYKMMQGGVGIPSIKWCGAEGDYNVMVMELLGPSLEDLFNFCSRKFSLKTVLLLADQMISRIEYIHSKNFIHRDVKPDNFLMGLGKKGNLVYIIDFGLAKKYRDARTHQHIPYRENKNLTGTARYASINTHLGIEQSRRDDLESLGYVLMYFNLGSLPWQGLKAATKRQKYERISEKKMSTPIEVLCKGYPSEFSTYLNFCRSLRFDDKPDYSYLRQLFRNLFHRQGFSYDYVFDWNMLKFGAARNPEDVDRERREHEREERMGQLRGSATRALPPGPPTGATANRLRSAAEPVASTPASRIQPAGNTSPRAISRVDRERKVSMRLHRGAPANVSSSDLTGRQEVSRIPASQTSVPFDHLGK

[3] = molecular target: T3, 340 wild-type kinases (Homo sapiens, UniProt Q9Y2K2)
T3 construct: purchased Reaction Biology Europe
T3 sequence (Q9Y2K2 whole entry): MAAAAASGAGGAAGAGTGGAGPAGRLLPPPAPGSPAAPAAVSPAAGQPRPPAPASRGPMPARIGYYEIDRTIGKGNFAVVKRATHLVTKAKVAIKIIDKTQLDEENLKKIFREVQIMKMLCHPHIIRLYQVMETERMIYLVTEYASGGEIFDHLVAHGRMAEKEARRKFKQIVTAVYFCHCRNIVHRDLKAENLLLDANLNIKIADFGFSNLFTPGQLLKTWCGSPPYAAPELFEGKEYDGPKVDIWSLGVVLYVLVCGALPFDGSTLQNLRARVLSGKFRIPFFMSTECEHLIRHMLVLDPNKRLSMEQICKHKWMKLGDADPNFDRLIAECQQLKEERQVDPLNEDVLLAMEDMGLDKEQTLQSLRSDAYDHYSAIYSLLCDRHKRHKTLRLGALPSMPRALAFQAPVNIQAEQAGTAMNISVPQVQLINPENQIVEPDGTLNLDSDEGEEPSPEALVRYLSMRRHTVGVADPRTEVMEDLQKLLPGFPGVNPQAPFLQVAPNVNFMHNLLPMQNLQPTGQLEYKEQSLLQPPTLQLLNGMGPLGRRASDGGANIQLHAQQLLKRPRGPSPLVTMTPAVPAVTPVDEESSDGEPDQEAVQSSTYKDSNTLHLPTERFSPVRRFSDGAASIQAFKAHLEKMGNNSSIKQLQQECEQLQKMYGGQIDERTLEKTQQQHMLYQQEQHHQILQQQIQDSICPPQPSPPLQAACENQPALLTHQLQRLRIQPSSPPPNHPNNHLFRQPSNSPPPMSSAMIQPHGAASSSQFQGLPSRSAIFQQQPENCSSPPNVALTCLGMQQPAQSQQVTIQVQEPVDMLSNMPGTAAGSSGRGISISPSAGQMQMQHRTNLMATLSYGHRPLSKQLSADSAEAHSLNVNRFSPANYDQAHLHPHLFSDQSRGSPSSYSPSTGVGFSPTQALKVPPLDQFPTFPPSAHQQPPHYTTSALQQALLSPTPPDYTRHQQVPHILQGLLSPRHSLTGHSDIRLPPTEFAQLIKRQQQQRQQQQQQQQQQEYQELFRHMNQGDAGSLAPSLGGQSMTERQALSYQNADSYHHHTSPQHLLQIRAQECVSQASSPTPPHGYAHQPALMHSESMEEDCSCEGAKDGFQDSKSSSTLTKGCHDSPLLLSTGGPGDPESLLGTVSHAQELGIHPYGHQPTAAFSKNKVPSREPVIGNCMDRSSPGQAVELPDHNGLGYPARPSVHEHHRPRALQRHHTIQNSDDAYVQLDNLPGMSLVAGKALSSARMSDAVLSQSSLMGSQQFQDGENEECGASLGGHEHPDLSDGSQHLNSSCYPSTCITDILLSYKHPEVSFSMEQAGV

[4] = molecular target: T4, 340 wild-type kinases (Homo sapiens, UniProt P41743)
T4 construct: purchased Reaction Biology Europe
T4 sequence (P41743 1-596): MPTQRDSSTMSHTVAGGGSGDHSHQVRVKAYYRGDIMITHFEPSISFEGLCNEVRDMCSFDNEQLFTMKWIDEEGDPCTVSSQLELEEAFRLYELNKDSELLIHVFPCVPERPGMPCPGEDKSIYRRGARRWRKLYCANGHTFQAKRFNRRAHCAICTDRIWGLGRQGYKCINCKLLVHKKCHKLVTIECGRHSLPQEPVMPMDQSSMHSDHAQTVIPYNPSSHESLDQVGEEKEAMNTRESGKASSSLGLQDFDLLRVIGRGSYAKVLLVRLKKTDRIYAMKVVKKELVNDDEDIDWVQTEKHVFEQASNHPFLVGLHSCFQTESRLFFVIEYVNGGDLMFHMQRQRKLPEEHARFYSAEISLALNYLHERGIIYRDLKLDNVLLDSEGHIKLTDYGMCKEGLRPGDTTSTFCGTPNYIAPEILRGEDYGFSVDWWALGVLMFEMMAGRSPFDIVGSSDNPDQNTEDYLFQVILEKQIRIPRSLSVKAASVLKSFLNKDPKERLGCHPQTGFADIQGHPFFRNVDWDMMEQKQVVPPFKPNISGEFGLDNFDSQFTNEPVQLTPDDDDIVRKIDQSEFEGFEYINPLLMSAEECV

[5] = molecular target: T5, 340 wild-type kinases (Homo sapiens, UniProt Q13555)
T5 construct: purchased Reaction Biology Europe

[6] = molecular target: T6, 340 wild-type kinases (Homo sapiens, UniProt Q9H1R3)
T6 construct: purchased Reaction Biology Europe

[7] = molecular target: T7, 340 wild-type kinases (Homo sapiens, UniProt Q00534)
T7 construct: purchased Reaction Biology Europe

[8] = molecular target: T8, 340 wild-type kinases (Homo sapiens, UniProt Q96GX5)
T8 construct: purchased Reaction Biology Europe
T8 sequence (Q96GX5 1-879): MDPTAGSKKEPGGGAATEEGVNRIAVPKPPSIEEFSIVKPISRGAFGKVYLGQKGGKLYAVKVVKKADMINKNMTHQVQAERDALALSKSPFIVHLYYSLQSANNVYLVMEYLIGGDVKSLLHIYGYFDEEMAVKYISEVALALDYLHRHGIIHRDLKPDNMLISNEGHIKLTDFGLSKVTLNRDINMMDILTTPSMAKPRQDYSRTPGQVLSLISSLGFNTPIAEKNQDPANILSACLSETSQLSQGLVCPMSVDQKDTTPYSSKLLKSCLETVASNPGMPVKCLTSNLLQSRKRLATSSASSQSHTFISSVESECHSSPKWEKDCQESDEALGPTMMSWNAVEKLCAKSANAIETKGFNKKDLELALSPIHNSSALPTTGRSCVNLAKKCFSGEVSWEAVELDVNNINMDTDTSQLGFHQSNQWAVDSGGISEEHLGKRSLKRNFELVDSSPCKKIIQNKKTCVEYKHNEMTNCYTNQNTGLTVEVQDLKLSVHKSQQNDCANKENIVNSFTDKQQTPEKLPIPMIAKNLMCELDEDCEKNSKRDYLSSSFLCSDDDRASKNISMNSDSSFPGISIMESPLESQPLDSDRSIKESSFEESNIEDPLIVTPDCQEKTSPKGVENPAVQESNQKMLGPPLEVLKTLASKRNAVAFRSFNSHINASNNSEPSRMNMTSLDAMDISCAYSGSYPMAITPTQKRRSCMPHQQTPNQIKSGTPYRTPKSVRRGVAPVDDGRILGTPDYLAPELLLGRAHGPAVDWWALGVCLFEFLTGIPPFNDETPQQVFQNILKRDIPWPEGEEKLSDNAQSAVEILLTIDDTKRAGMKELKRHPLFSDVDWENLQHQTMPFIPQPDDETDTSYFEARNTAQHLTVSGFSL

[9] = molecular target: T9, 340 wild-type kinases (Homo sapiens, UniProt Q16513)
T9 construct: purchased Reaction Biology Europe
T9 sequence (Q16513 whole entry): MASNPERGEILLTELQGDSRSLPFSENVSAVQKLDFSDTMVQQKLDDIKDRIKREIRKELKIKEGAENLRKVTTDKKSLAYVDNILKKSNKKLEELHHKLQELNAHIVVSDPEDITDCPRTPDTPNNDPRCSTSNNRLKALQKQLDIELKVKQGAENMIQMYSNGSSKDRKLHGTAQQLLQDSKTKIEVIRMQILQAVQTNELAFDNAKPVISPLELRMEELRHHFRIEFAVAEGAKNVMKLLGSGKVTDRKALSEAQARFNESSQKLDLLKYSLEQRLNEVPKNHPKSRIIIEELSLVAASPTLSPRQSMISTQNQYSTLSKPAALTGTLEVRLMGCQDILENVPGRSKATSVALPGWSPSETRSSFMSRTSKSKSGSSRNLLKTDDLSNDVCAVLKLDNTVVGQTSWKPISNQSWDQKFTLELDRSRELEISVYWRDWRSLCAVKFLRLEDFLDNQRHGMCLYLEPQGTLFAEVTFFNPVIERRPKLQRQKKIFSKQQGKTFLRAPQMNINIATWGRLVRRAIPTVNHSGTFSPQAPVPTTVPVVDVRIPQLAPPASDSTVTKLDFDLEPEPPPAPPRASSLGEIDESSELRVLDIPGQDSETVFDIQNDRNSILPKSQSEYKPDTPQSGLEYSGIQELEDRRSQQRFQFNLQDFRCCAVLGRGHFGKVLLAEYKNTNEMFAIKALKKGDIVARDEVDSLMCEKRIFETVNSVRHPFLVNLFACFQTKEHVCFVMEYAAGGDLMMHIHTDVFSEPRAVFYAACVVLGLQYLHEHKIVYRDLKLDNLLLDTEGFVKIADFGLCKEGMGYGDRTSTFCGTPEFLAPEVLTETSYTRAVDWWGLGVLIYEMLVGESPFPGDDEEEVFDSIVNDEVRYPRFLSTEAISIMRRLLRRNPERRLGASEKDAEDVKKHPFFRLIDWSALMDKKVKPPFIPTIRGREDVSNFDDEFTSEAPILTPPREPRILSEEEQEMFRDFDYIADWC

[10] = molecular target: T10, 340 wild-type kinases (Homo sapiens, UniProt P09619)
T10 construct: purchased Reaction Biology Europe
T10 sequence (P09619 33-1106): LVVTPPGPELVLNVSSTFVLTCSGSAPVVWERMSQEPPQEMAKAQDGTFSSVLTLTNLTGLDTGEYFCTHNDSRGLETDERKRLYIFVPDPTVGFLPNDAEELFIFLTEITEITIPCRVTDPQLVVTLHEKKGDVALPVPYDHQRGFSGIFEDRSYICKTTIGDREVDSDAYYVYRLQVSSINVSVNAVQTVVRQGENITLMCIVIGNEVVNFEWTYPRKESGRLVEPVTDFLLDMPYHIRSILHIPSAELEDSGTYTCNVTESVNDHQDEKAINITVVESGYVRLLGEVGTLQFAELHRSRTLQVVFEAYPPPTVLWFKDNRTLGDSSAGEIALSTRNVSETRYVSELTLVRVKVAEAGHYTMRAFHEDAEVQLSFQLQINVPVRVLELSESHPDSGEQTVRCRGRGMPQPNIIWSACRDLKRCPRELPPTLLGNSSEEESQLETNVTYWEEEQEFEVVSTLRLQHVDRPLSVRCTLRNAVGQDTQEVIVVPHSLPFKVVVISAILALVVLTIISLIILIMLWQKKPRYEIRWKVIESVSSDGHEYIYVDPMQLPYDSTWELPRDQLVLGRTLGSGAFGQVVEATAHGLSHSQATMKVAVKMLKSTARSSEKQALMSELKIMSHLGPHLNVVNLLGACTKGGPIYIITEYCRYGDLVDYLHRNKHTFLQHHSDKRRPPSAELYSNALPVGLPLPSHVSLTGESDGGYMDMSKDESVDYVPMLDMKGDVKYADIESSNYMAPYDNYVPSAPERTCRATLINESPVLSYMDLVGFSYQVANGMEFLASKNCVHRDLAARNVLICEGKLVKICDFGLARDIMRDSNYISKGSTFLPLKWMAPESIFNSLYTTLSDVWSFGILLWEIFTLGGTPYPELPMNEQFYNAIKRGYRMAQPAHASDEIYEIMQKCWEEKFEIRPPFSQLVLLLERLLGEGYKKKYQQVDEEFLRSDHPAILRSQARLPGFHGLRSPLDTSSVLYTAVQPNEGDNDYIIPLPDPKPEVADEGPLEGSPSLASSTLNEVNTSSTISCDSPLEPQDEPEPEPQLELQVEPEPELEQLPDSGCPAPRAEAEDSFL

## CNC(=O)c1ccc2c(c1)C(=O)c1ccc(Nc3ccc(F)c(NC(=O)C4CC4)c3)cc1CC2 [Compound 2015]
[1]; 0.2 µM 2015, read-out: MAP4K4 residual activity
  remaining activity at 0.2 µM: 90.2%
[1]; 1 µM 2015, read-out: MAP4K4 residual activity
  remaining activity at 1 µM: 81.8%
[1]; MAP4K4, 0.2 µM, read-out: residual activity
  remaining activity at 0.2 µM: 90.2%
[1]; MAP4K4, 1 µM, read-out: residual activity
  remaining activity at 1 µM: 81.8%
[2]; 0.2 µM 2015, read-out: CK1epsilon residual activity
  remaining activity at 0.2 µM: 114%
[2]; 1 µM 2015, read-out: CK1epsilon residual activity
  remaining activity at 1 µM: 111%
[2]; CK1epsilon, 0.2 µM, read-out: residual activity
  remaining activity at 0.2 µM: 114%
[2]; CK1epsilon, 1 µM, read-out: residual activity
  remaining activity at 1 µM: 111%
[3]; 0.2 µM 2015, read-out: SIK3 residual activity
  remaining activity at 0.2 µM: 101%
[3]; 1 µM 2015, read-out: SIK3 residual activity
  remaining activity at 1 µM: 95.7%
[3]; SIK3, 0.2 µM, read-out: residual activity
  remaining activity at 0.2 µM: 101%
[3]; SIK3, 1 µM, read-out: residual activity
  remaining activity at 1 µM: 95.7%
[4]; 0.2 µM 2015, read-out: PKCiota residual activity
  remaining activity at 0.2 µM: 104%
[4]; 1 µM 2015, read-out: PKCiota residual activity
  remaining activity at 1 µM: 92%
[4]; PKCiota, 0.2 µM, read-out: residual activity
  remaining activity at 0.2 µM: 104%
[4]; PKCiota, 1 µM, read-out: residual activity
  remaining activity at 1 µM: 92%
[5]; 0.2 µM 2015, read-out: CAMK2G residual activity
  remaining activity at 0.2 µM: 99%
[5]; 1 µM 2015, read-out: CAMK2G residual activity
  remaining activity at 1 µM: 90.5%
[5]; CAMK2G, 0.2 µM, read-out: residual activity
  remaining activity at 0.2 µM: 99%
[5]; CAMK2G, 1 µM, read-out: residual activity
  remaining activity at 1 µM: 90.5%
[6]; 0.2 µM 2015, read-out: MYLK2 residual activity
  remaining activity at 0.2 µM: 89.3%
[6]; 1 µM 2015, read-out: MYLK2 residual activity
  remaining activity at 1 µM: 77.6%
[6]; MYLK2, 0.2 µM, read-out: residual activity
  remaining activity at 0.2 µM: 89.3%
[6]; MYLK2, 1 µM, read-out: residual activity
  remaining activity at 1 µM: 77.6%
[7]; 0.2 µM 2015, read-out: CDK6/CycD1 residual activity
  remaining activity at 0.2 µM: 97.6%
[7]; 0.2 µM 2015, read-out: CDK6/CycD2 residual activity
  remaining activity at 0.2 µM: 88.8%
[7]; 0.2 µM 2015, read-out: CDK6/CycD3 residual activity
  remaining activity at 0.2 µM: 93.3%
[7]; 1 µM 2015, read-out: CDK6/CycD1 residual activity
  remaining activity at 1 µM: 93.4%
[7]; 1 µM 2015, read-out: CDK6/CycD2 residual activity
  remaining activity at 1 µM: 91.1%
[7]; 1 µM 2015, read-out: CDK6/CycD3 residual activity
  remaining activity at 1 µM: 86.4%
[7]; CDK6/CycD1, 0.2 µM, read-out: residual activity
  remaining activity at 0.2 µM: 97.6%
[7]; CDK6/CycD1, 1 µM, read-out: residual activity
  remaining activity at 1 µM: 93.4%
[7]; CDK6/CycD2, 0.2 µM, read-out: residual activity
  remaining activity at 0.2 µM: 88.8%
[7]; CDK6/CycD2, 1 µM, read-out: residual activity
  remaining activity at 1 µM: 91.1%
[7]; CDK6/CycD3, 0.2 µM, read-out: residual activity
  remaining activity at 0.2 µM: 93.3%
[7]; CDK6/CycD3, 1 µM, read-out: residual activity
  remaining activity at 1 µM: 86.4%
[8]; 0.2 µM 2015, read-out: MASTL residual activity
  remaining activity at 0.2 µM: 101%
[8]; 1 µM 2015, read-out: MASTL residual activity
  remaining activity at 1 µM: 93.3%
[8]; MASTL, 0.2 µM, read-out: residual activity
  remaining activity at 0.2 µM: 101%
[8]; MASTL, 1 µM, read-out: residual activity
  remaining activity at 1 µM: 93.3%
[9]; 0.2 µM 2015, read-out: PRK2 residual activity
  remaining activity at 0.2 µM: 89.2%
[9]; 1 µM 2015, read-out: PRK2 residual activity
  remaining activity at 1 µM: 91.1%
[9]; PRK2, 0.2 µM, read-out: residual activity
  remaining activity at 0.2 µM: 89.2%
[9]; PRK2, 1 µM, read-out: residual activity
  remaining activity at 1 µM: 91.1%
[10]; 0.2 µM 2015, read-out: PDGFRbeta residual activity
  remaining activity at 0.2 µM: 101%
[10]; 1 µM 2015, read-out: PDGFRbeta residual activity
  remaining activity at 1 µM: 101%
[10]; PDGFRbeta, 0.2 µM, read-out: residual activity
  remaining activity at 0.2 µM: 101%
[10]; PDGFRbeta, 1 µM, read-out: residual activity
  remaining activity at 1 µM: 101%
